Laboratory results as given in patent publication US20100143441A1 (OsteoGeneX Inc., priority 2008, published 2010).

Assays:
[1] = target: SOST (Mus musculus, UniProt Q99P68); conditions: predetermined dose for a complete dosing schedule, micro-CT versus control mouse
Experimental: (§1) A general method of identifying SOST antagonists involves evaluating the effects of antagonist candidates on bone formation under controlled conditions. Preferably bone formation is determined using micro-CT techniques on live animals. Preferred animals include rodents, more preferred are primates. Femur, tibia and vertebrae bones are particularly useful subjects for such study.
Briefly, the test animal is treated with a predetermined dose of a SOST antagonist candidate.
This can be accomplished by any suitable method, but is preferably performed on live animals to analyze the bone mineral content. […] A SOST antagonist candidate suitable for use as a SOST antagonist is identified by noting significant bone formation in the test animal when compared to the control animal. Bone formation in the test bone(s) of the test animal can be 0.5%, 1, 5, 10, 20, 30, 40, 50, 60, 70, 80, 90, 100, 200, 300, 400, 500, 600, 700, 800, 900 or 1000% more bone formation than is present in the same bones of the control animal. More preferably, bone formation can be 20%, most preferably 30% or 40%. Where necessary, levels of bone formation can be calculated by determining the volume of bone formation present in each animal. Calculations can be performed by constructing a 3-dimensional image of the bone formation and calculating the volume from the image with the aid of e.g., histomorphometry. […]

[2] = tested on: Wnt pathway; conditions: Wnt+Sclerostin+2.5, 6.3, 12.5 or 25 ng nortriptyline; compared with Wnt only and Wnt+Sclerostin
Experimental: as §1

SOST, sequence (Q99P68 24-211): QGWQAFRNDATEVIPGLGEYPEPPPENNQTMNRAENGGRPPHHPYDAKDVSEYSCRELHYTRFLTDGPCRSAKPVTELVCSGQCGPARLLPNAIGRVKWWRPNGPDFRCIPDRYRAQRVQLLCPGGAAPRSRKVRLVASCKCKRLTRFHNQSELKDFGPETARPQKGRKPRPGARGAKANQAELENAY

CNCCC=C1c2ccccc2CCc2ccccc21 [nortriptyline]
bone growth (quantity of bone formation present) [1]: promoting bone growth | modulation of the Wnt pathway [2]: modulating the Wnt pathway
